Experimental data reported in patent publication US7897369B2, “Isoprenoid wax ester synthases, isoprenoid acyl CoA-synthetases, and uses thereof” (Regents of the University of Minnesota, priority 2007, dated 2011).

Key:
Assay type in all cases: biochemical, Marinobacter hydrocarbonoclasticus DSM 8798
[1] = molecular target: T1, WS2 (Marinobacter nauticus, UniProt A3RE51); test: Kinetic WS assay, spectrophotometric (CoA release, DTNB); conditions: both substrates 1 mM; for Acyl-CoA specificity of WS2: hexadecanol as acyl acceptor; for Fatty/isoprenoid alcohol specificity of WS2: palmitoyl-CoA as acyl donor
T1 sequence (A3RE51 entry or part of it): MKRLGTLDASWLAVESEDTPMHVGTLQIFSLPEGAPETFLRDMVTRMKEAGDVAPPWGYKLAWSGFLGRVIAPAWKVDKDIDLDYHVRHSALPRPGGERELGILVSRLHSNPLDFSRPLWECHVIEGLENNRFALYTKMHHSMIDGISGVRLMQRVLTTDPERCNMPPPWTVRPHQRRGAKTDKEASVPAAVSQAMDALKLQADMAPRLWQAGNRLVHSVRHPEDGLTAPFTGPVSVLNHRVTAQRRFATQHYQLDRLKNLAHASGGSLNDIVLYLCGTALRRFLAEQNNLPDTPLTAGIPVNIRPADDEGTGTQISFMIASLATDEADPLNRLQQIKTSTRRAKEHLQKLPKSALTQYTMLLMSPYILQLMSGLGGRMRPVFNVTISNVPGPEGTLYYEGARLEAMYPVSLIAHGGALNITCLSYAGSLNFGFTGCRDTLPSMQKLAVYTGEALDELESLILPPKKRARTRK
Experimental: Assay reactions were preincubated at 37° C. for 5 min before the reactions were started by the addition of enzyme. Heat-denatured enzyme (99° C. for 15 min) was used as a negative control.
Acyl-CoA and fatty/isoprenoid alcohol specificity of WS2 was determined in the same manner as described for the kinetic WS assay with assumed saturating conditions containing both the fatty/isoprenoid alcohol and acyl-CoA substrates at a concentration of 1 mM. Acyl-CoA specificity was measured with hexadecanol as acyl acceptor, whereas palmitoyl-CoA was used as acyl donor to determine alcohol specificity.
A spectrophotometric assay was developed to determine the kinetic properties of WS1 and WS2. […] The specific activities of WS1, WS2, and Acinetobacter WS/DGAT were measured with palmitoyl-CoA and hexadecanol, palmitoyl-CoA and phytol, and phytanoyl-CoA and phytol. Phytanoyl-CoA for these assays was enzymatically synthesized from phytanic acid and CoA using the above-characterized isoprenoid/acyl-CoA synthetase Acs2.

[2] = molecular target: T1, WS2; test: Coupled enzyme assay, WS substrate profile (TLC); design: key to WE formation (spot intensity of wax ester products on TLC), WS2, C16 / WE formation (spot intensity of wax ester products on TLC), WS2, Phytol / WE formation (spot intensity of wax ester products on TLC), WS2, Farnesol / WE formation (spot intensity of wax ester products on TLC), WS2, C10 / WE formation (spot intensity of wax ester products on TLC), WS2, C12 / WE formation (spot intensity of wax ester products on TLC), WS2, C14: no activity (−); ranging from no activity (−) to most active (+++); ranging from no activity (−) to most active (+++); most active (+++); conditions: 12 h at 37° C., each substrate 250 μM; for WE formation (spot intensity of wax ester products on TLC), WS2, Farnesol: alcohol farnesol; for WE formation (spot intensity of wax ester products on TLC), WS2, Phytol: alcohol phytol; for WE formation (spot intensity of wax ester products on TLC), WS2, C10: fatty alcohol C10; for WE formation (spot intensity of wax ester products on TLC), WS2, C12: fatty alcohol C12; for WE formation (spot intensity of wax ester products on TLC), WS2, C14: fatty alcohol C14; for WE formation (spot intensity of wax ester products on TLC), WS2, C16: fatty alcohol C16
Experimental: (§1) Stock solutions of various substrates were prepared in 50 mM Tris-HCl buffer (pH 8) containing 1% gum arabic, 12.5 μg bovine serum albumin ml^−1, 0.1% taurocholate, and either 100 mM fatty acid, isoprenoid acid, fatty alcohol, or isoprenoid alcohol. Stock solutions were sonicated to disperse the substrates. Substrate profiles of the three WS were tested using coupled enzyme in vitro reactions in which the CoA synthetases Acs1 and Acs2 are added to synthesize the CoA-activated fatty acid phytanic acid substrates from corresponding acid precursors for the WS reactions. Assays were carried out in 500-μl reactions containing in 50 mM Tris-HCl buffer (pH 8.0), 12.5 μl of each acid, and alcohol substrate stock solution (final concentrations of each substrate of 250 μM), 10 mM MgCl2, 10 mM CoASH, 10 mM ATP, 5 mM TCEP, 0.1 U of inorganic pyrophosphatase, 0.25 μg of Acs1 and Acs2 CoA synthetase, and 0.5 μg of WS to be tested. Assays were incubated at 37° C. overnight before thin-layer chromatography (TLC) analysis of the reaction products.
(§2) In vitro WS assay samples were extracted with 500 μl of chloroformmethanol (1:1 [vol/vol]), and extracts were analyzed by TLC with Whatman normal phase silica gel 60 plates and developed using hexane-diethyl ether-acetic acid (90:10:1 [vol/vol/vol]). TLC plates were stained with either iodine vapor or anisaldehyde solution as described earlier (Jork et al., 1990. Thin-layer chromatography reagents and detection methods, vol. 1a. Physical and chemical detection methods: fundamentals, reagents. VHC, Weinheim, Germany). Palmitoyl palmitate and triolein were used as WE and TAG reference compounds, respectively.

[3] = test system: WS1; test: Coupled enzyme assay, WS substrate profile (TLC); design: key to WE formation (spot intensity of wax ester products on TLC), WS1, C10 / WE formation (spot intensity of wax ester products on TLC), WS1, C12 / WE formation (spot intensity of wax ester products on TLC), WS1, C14 / WE formation (spot intensity of wax ester products on TLC), WS1, C16 / WE formation (spot intensity of wax ester products on TLC), WS1, Phytol / WE formation (spot intensity of wax ester products on TLC), WS1, Farnesol: no activity (−); ranging from no activity (−) to most active (+++); ranging from no activity (−) to most active (+++); most active (+++); conditions: 12 h at 37° C., each substrate 250 μM; for WE formation (spot intensity of wax ester products on TLC), WS1, Farnesol: alcohol farnesol; for WE formation (spot intensity of wax ester products on TLC), WS1, Phytol: alcohol phytol; for WE formation (spot intensity of wax ester products on TLC), WS1, C10: fatty alcohol C10; for WE formation (spot intensity of wax ester products on TLC), WS1, C12: fatty alcohol C12; for WE formation (spot intensity of wax ester products on TLC), WS1, C14: fatty alcohol C14; for WE formation (spot intensity of wax ester products on TLC), WS1, C16: fatty alcohol C16
Experimental: as §1, §2

Structure (SMILES)	Acyl-CoA specificity of WS2 [1]	WE formation (spot intensity of wax ester products on TLC), WS2, Farnesol [2]	WE formation (spot intensity of wax ester products on TLC), WS2, Phytol [2]	WE formation (spot intensity of wax ester products on TLC), WS2, C10 [2]	WE formation (spot intensity of wax ester products on TLC), WS2, C12 [2]	WE formation (spot intensity of wax ester products on TLC), WS2, C14 [2]	WE formation (spot intensity of wax ester products on TLC), WS2, C16 [2]	WE formation (spot intensity of wax ester products on TLC), WS1, Farnesol [3]	WE formation (spot intensity of wax ester products on TLC), WS1, Phytol [3]	WE formation (spot intensity of wax ester products on TLC), WS1, C10 [3]	WE formation (spot intensity of wax ester products on TLC), WS1, C12 [3]	WE formation (spot intensity of wax ester products on TLC), WS1, C14 [3]	WE formation (spot intensity of wax ester products on TLC), WS1, C16 [3]	Fatty/isoprenoid alcohol specificity of WS2 [1]
CCCCCCCCCCO [Decanol]														more readily taken up for WE synthesis than the equivalent-chain-length acyl-CoA carbon chain
CCCCCCCCCCCC(=O)SCCNC(=O)CCNC(=O)[C@H](O)C(C)(C)COP(=O)(O)OP(=O)(O)OC[C@H]1O[C@@H](n2cnc3c(N)ncnc32)[C@H](O)[C@@H]1OP(=O)(O)O [lauroyl-CoA, lauroyl-CoA (C12)]	not accepted at all													
CCCCCC/C=C\CCCCCCCC(=O)O [C16Δcis9]		++	++	++	++	+++	+++	++	+++	+	++	++	++	
CCCCCCCCCCCCO [dodecanol]														more readily taken up for WE synthesis than the equivalent-chain-length acyl-CoA carbon chain
CCCCCCCCCCCCCCCCCCCC(=O)O [C20]		+	+	−	−	+	+	++	++	+	+	+	+	

More lines, main results first:

Acyl-CoA specificity of WS2 [1]	WE formation (spot intensity of wax ester products on TLC), WS2, Farnesol [2]	WE formation (spot intensity of wax ester products on TLC), WS2, Phytol [2]	WE formation (spot intensity of wax ester products on TLC), WS2, C10 [2]	WE formation (spot intensity of wax ester products on TLC), WS2, C12 [2]	WE formation (spot intensity of wax ester products on TLC), WS2, C14 [2]	WE formation (spot intensity of wax ester products on TLC), WS2, C16 [2]	WE formation (spot intensity of wax ester products on TLC), WS1, Farnesol [3]	WE formation (spot intensity of wax ester products on TLC), WS1, Phytol [3]	WE formation (spot intensity of wax ester products on TLC), WS1, C10 [3]	WE formation (spot intensity of wax ester products on TLC), WS1, C12 [3]	WE formation (spot intensity of wax ester products on TLC), WS1, C14 [3]	WE formation (spot intensity of wax ester products on TLC), WS1, C16 [3]	Structure (SMILES)	Fatty/isoprenoid alcohol specificity of WS2 [1]
readily accepted													CC/C=C\C/C=C\C/C=C\CCCCCCCC(=O)SCCNC(=O)CCNC(=O)[C@H](O)C(C)(C)COP(=O)(O)OP(=O)(O)OC[C@H]1O[C@@H](n2cnc3c(N)ncnc32)[C@H](O)[C@@H]1OP(=O)(O)O [linolenoyl-CoA, linolenoyl-CoA (C18:3)]	
readily accepted													CCCCCCCCCCCCCCCCCC(=O)SCCNC(=O)CCNC(=O)[C@H](O)C(C)(C)COP(=O)(O)OP(=O)(O)OC[C@H]1O[C@@H](n2cnc3c(N)ncnc32)[C@H](O)[C@@H]1OP(=O)(O)O [stearoyl-CoA, stearoyl-CoA (C18:0)]	
	++	+	+	+	+	+	+++	−	−	+	+	+	CCCCCCCCCCCC(=O)O [C12]	
	++	+	++	+	++	+	++	+	−	−	++	+	CCCCCCCCCCCCCC(=O)O [C14]	
	−	+	+	+	+	+	+	−	−	+	+	−	CC/C=C\C/C=C\C/C=C\CCCCCCCC(=O)O [C18Δcis9, 12, 15]	
	+	+	+	+	−	+	+++	−	+	+	−	+	CCCCCCCCCC(=O)O [C10]	
	++	+	+	+	+	+	++	++	++	+	++	+	CCCCCCCCCCCCCCCCCC(=O)O [C18]	
